Data on one compound can be found in paper PMC6627331, “Identification of Small Molecule Inhibitors of Staphylococcus aureus RnpA” (Antibiotics, 2019).

Converted amounts (≈) assume the structure as drawn. Like-named read-outs stand apart in the source and are kept apart here.

For series [1], the system named is S. aureus UAMS-1. Kind of series: Fractional inhibitory concentration (FIC) testing. Format: cell-based, Staphylococcus aureus. Particulars: checkerboard, 16 h. The method, then:
Fractional inhibitory concentration (FIC) testing was performed to determine the combined effects of the indicated antibiotic and the putative RnpA inhibitor following the procedures of Odds and colleagues. To do so, individual wells of a 96-well microtiter plate were inoculated with 10^4 colony forming units (CFU) of S. aureus UAMS-1 in MHB. Each row of the plate contained two-fold increasing concentrations of the indicated antibiotic (0, 0.03, 0.06, 0.125, 0.25, 0.5, 1, 2, or 4× MIC), whereas each column contained increasing concentrations of the putative RnpA inhibitor compound (0, 0.03, 0.06, 0.125, 0.25, 0.5, 1, 2, or 4× MIC). Plates were incubated at 37 °C for 16 h and growth was determined by the unaided eye. The FIC was defined using the following formula: FIC = (MIC of Drug A in Combination/MIC of Drug A Alone) + (MIC of Drug B in Combination/MIC of Drug B Alone). A synergistic interaction was defined as an FIC value ≤ 0.5, an additive interaction as 0.5 < FIC < 1, no interaction as 1 ≤ FIC < 4, and an antagonistic interaction as FIC ≥ 4.

In series [2] the test system is all cellular mRNA species of S. aureus UAMS-1. Kind of series: Global cellular mRNA turnover (Affymetrix GeneChip). In kind it is cell-based, Staphylococcus aureus. Particulars: 0.5× MIC; mock (DMSO) 84.8%. The method, then: S. aureus mRNA half-life determinations were performed as previously described. […] Rifampin (Sigma-Aldrich) was added to the culture at a final concentration of 200 μg·mL^−1 to inhibit de novo transcript synthesis. Half of the culture was immediately removed and combined with an equal volume of ice cold acetone:ethanol (1:1 v/v). The remaining culture was returned to the shaking 37 °C incubator for an additional 5 min and then subsequently combined with an equal volume of ice cold acetone:ethanol (1:1 v/v) and stored at −80 °C until processing, as described below.
Briefly, following the manufacturer’s instructions for prokaryotic arrays, reverse transcription was carried out on 10 µg of total bacterial RNA and control eukaryotic poly(A) RNA (Affymetrix). […] Transcript signal intensity values were read using the Affymetrix GeneChip® Scanner, and intensity values for each ORF and intergenic region were averaged among the biological replicates (n ≥ 2). Signals were normalized to the control poly(A) cDNA intensity values using GeneSpring 7.2 software (Agilent Technologies, Redwood City, CA, USA) and the number of transcripts with a decrease in transcript signal of >2-fold were determined.

A further series addresses T1, S. aureus RnpA (Staphylococcus aureus, UniProt P0A0H5).
T1 construct: hexahistidine (His6) (N); made in house; host or cells: E. coli BL21 (DE3), plasmid pEXP5-nt
T1 sequence (P0A0H5 1-117): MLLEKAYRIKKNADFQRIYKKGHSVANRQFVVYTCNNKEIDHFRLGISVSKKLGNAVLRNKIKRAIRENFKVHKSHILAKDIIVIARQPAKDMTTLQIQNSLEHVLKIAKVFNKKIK
Kind of series: RnpA-mediated in vitro spa mRNA degradation assay. In kind it is biochemical. The settings on record: read-out: Degradation IC50. The method, then: RnpA-mediated RNA degradation assays were performed as previously described. Briefly, 1 pmol of spa mRNA was incubated with 5 pmol RnpA at 37 °C for 30 min in reaction buffer (50 mM Tris-HCl pH 8.0, 2 mM NaCl, 2 mM MgCl2) in the absence or presence of the indicated compound (≤500 µM). The inhibitory effects of the test compounds were calculated using Biorad ImageLab densitometry software to measure the signal intensity of the spa band in the negative control (spa alone), positive control (RnpA + spa + DMSO), and experimental samples (RnpA + spa + test compound) separated on a 1.2% formaldehyde-agarose gel. Background signal from the positive control sample sometimes resulted due to incomplete degradation of transcripts. Thus, the signal intensity of the positive control was taken into account when calculating the percent inhibition. The raw signals from the positive (+RnpA) and negative (-RnpA) controls were converted into percentage, by normalizing the positive control (+RnpA) signal to 0% RnpA inhibition and the negative control (-RnpA) to 100% RnpA inhibition. Similarly, the raw signals from the test compounds were reported as percent RnpA inhibition using the following equation: [(experimental−positive control)/(negative control−positive control)] × 100. […] To assess IC50, % RnpA degradation inhibition was plotted against compound concentration; a linear best fit equation was generated and utilized to calculate the IC50.

For the next series, the system named is Galleria mellonella. In words: Galleria mellonella single tolerated dose (uninfected worms). Format: in vivo. The settings on record: single dose 100 mg·kg^−1, 16 h. The method, then: An overnight culture of S. aureus strain UAMS-1 was used to inoculate (1:100 dilution) 25 mL of fresh MH medium and growth at 37 °C on a rotary shaker at 225 rpm to exponential phase (~1 × 10^8 CFU mL^−1). Cultures were pelleted by centrifugation, washed with phosphate buffered saline (PBS), and re-suspended at ~1 × 10^7 CFU·mL^−1 in fresh PBS. G. mellonella larvae weighing 150–250 mg were inoculated with 5 µL of S. aureus into the last left proleg using a 10 µL Hamilton syringe. About 1 h after inoculation, one group of worms was treated with 2 µL DMSO as infected negative control; one group was treated with 2 µL JC2 compound at 100 mg/kg dose; another group was treated with 2 µL vancomycin at 100 mg/kg dose as standard-of-care comparison. Treatments were administered in the same manner as infection, except that each injection was in the next left proleg moving towards the head of the worm. […] In addition to the mock or compound treatment of infected larvae, a group of non-infected worm injected with DMSO or corresponding compounds were used to monitor the impact of physical trauma as well as observe toxicity associated with compound treatment.

Series [3] relates to S. aureus UAMS-1. Kind of series: Minimum inhibitory concentration (MIC) testing. In kind it is cell-based, Staphylococcus aureus. As to the method: Minimum inhibitory concentration (MIC) testing was performed using to Clinical & Laboratory Standards Institute (CLSI) guidelines. Accordingly, individual wells of a 96-well microtiter plate were inoculated with 10^4 colony forming units (CFU) of S. aureus UAMS-1 containing two-fold increasing concentrations (0 to 256 μg·mL^−1) of the indicated antibiotic or putative RnpA inhibitor compound, and incubated at 37 °C for 16 h in MHB. The MIC was defined as the lowest concentration of compound in which there was no visible bacterial growth in the well.

As for `CC1CCCCN1C(=O)Nc1cc(Cl)cc(Cl)c1` (stereo not shown) [JC2], in the series with S. aureus UAMS-1 [1], the “FIC in combination with ampicillin” value was found to be 2, the “FIC in combination with erythromycin” value is recorded as 2, the “FIC in combination with mupirocin” value came out at 0.875 and the “FIC in combination with trimethoprim” value turned out to be 2. The “transcript species with a half-life of ≤5 min” value in series [2] was found to be 51.6%. Moreover, the IC50 on S. aureus RnpA stood at 180 µM. Also, the “mortality rate of uninfected worms” value in the series on Galleria mellonella is “did not display any treatment-associated lethality”. The MIC with S. aureus UAMS-1 [3] (S. aureus UAMS-1, 16 h in MHB, listed as 9049625) turned out to be 1 µg/mL (≈ 3.48 µM). Moreover, the MIC in the series with S. aureus UAMS-1 [3] (Staphylococcus aureus, UAMS1, 16 h, Table S1, mupirocin synergy screening initial hits, read-out: MIC) was found to be 1 µg/mL. For the same compound, the minimum inhibitory concentration (MIC) with S. aureus UAMS-1 [3] (Staphylococcus aureus, UAMS1, SAR figures, S. aureus UAMS-1, read-out: MIC) stood at 0.5 µg/mL (≈ 1.74 µM).

The term IC50 denotes the concentration that gives 50% inhibition. For orientation: MIC means the least concentration at which growth counts as inhibited.
